From patent publication US20220315572A1, “SUBSTITUTED CYANOPYRROLIDINES WITH ACTIVITY AS USP30 INHIBITORS” (MISSION THERAPEUTICS LIMITED, priority 2019, published 2022)
Where two headings read alike, the source gives them in different places.

Columns and labels:
Cathepsins B, K, L, S, V = test: Cathepsin IC50, range over B, K, L, S, V; format: biochemical; conditions: for fold more potent against USP30 than against the cathepsins, minimum: lowest of cathepsins B, S and V; for fold more potent against USP30 than against the cathepsins, minimum / Selectivity preference for USP30 v cathepsins: K, L; for Selectivity preference for USP30 v cathepsins: range over cathepsins B, S; for IC50: range over the five cathepsins
Cathepsin V = Cathepsin V (Homo sapiens, UniProt O60911); test: Cathepsin IC50, cathepsin V; format: biochemical
Sequence of Cathepsin V (O60911 114-334, species assumed): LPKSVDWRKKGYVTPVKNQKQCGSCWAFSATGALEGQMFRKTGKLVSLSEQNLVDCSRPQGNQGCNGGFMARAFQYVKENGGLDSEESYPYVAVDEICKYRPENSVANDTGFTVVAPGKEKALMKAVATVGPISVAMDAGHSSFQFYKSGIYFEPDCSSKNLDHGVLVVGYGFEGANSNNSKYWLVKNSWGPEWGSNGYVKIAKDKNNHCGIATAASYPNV

[1] = tested on: USP2, USP10, USP16, USP21, USP22, USP25, USP28, USP35, USP46; test: DUB biochemical IC50 assays, nine DUBs; conditions: for fold more potent against USP30 than against the nine DUBs, minimum: lowest of USP2, USP10, USP16, USP21, USP22, USP25, USP28, USP35, USP46; for DUB selectivity preference for USP30 v 9 DUBs / IC50: range over the nine DUBs; for IC50: Ref. Ex. C excl. USP22, Ref. Ex. D excl. USP2, 46
Cathepsin B = Cathepsin B (Homo sapiens, UniProt P07858); test: Cathepsin IC50, cathepsin B; format: biochemical
Cathepsin S = Cathepsin S (Homo sapiens, UniProt P25774); test: Cathepsin IC50, cathepsin S; format: biochemical
Sequence of Cathepsin S (P25774 115-331, species assumed): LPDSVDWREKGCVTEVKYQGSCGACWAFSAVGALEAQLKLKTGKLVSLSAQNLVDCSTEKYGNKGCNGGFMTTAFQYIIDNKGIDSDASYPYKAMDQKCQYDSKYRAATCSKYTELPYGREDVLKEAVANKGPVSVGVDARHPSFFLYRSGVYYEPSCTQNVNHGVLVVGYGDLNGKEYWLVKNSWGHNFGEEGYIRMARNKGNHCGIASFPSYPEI

Cathepsin K = target: T1, Cathepsin K (Homo sapiens, UniProt P43235); test: Cathepsin IC50, cathepsin K; format: biochemical
T1 sequence (P43235 115-329): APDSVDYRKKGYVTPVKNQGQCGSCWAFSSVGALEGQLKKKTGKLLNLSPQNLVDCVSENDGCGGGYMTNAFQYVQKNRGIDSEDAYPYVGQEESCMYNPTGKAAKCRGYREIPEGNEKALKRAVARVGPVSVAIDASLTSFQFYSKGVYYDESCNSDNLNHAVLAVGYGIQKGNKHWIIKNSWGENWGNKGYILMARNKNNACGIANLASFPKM

USP30 = target: T2, USP30 (Homo sapiens, UniProt Q70CQ3); test: USP30 biochemical IC50 assay (fluorescence polarisation)
T2 construct: purchased Boston Biochem E582
T2 sequence (Q70CQ3 57-517 limits assumed): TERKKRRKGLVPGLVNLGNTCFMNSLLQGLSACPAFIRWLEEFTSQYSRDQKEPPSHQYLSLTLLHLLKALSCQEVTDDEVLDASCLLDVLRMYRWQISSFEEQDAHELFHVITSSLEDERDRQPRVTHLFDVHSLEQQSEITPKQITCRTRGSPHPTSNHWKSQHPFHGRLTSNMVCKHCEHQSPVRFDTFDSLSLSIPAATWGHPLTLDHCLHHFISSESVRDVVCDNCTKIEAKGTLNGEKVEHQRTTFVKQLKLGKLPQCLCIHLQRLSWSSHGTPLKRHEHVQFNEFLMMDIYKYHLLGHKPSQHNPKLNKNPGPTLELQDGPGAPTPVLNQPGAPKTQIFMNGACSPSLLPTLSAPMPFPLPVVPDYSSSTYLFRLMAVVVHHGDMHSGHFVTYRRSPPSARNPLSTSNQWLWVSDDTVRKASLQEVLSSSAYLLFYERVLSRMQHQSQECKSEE
Method: Dilution plates were prepared at 21 times the final concentration (2100 μM for a final concentration of 100 μM) in 50% DMSO in a 96-well polypropylene V-bottom plate (Greiner #651201). A typical 8-point dilution series would be 100, 30, 10, 3, 1, 0.3, 0.1, 0.03 μM final. Reactions were performed in duplicate in black 384 well plates (small volume, Greiner 784076) in a final reaction volume of 21 μl. Either […] of 50% DMSO or diluted compound was added to the plate. USP30 (Boston Biochem #E582) was diluted in reaction buffer (40 mM Tris, pH 7.5, 0.005% Tween 20, 0.5 mg/ml BSA, 5 mM beta-mercaptoethanol) to achieve a final assay concentration of 4 nM, and 10 μl of diluted USP30 was added to the compound. Enzyme and compound were incubated for 30 min at room temp. Reactions were initiated by the addition of 50 nM of TAMRA labelled peptide linked to ubiquitin via an iso-peptide bond as fluorescence polarisation substrate. Reactions were read immediately after addition of substrate and following a 2-hour incubation at room temperature. Readings were performed on a Pherastar Plus (BMG Labtech). λ Excitation 540 nm; λ Emission 590 nm.

Cathepsin L = Cathepsin L (Homo sapiens, UniProt P07711); test: Cathepsin IC50, cathepsin L; format: biochemical
Sequence of Cathepsin L (P07711 114-333, species assumed): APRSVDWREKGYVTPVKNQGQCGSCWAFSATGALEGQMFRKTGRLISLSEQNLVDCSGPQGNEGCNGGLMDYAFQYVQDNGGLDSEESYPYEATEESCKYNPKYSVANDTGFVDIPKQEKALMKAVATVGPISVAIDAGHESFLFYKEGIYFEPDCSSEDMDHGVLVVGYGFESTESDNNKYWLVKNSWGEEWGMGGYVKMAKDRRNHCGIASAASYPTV

UCHL1 = target: T3, UCHL1 (Homo sapiens, UniProt P09936); test: DUB biochemical IC50 assay, UCHL1
T3 sequence (P09936 1-223): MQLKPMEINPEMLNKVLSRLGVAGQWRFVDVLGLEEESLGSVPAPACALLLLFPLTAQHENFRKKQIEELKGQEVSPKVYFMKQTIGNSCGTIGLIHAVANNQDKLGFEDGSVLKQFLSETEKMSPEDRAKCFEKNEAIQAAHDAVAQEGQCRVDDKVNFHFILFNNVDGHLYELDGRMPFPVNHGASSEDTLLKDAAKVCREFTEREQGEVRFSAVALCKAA

Endogenous USP30 = target: T4, Endogenous USP30 (Homo sapiens, UniProt Q70CQ3); test: USP30 endogenous cellular target engagement western blot assay (Cell TE WB); format: cell-based; conditions: Hela cells stably overexpressing YFP-Parkin, 1 hour
T4 construct: USP30 endogenous cellular target engagement western blot (WB) assay; endogenous in cells; host or cells: HeLa stably overexpressing YFP-Parkin
T4 sequence (Q70CQ3 1-517): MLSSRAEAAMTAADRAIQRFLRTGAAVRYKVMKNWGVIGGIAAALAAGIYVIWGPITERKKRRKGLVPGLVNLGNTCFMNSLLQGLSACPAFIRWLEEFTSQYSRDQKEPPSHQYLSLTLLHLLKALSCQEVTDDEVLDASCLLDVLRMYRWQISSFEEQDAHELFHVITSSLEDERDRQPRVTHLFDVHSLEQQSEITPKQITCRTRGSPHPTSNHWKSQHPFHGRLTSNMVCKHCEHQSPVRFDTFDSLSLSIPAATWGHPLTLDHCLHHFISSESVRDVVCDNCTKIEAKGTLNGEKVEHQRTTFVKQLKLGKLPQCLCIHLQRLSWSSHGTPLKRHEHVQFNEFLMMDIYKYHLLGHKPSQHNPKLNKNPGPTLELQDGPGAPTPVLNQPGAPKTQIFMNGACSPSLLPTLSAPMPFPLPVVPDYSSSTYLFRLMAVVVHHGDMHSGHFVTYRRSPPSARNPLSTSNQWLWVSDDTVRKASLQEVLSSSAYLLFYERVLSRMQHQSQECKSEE
Method: Hela cells stably overexpressing YFP-Parkin were seeded into 6 well dishes. Once adhered, cells were treated with appropriate concentrations of test compounds or vehicle control for 1 hour at 37° C., 5% CO2. Whole cell lysates were prepared by scraping the cells into cold PBS, centrifuging and lysing in lysis buffer (50 mM Tris-base, pH 7.5, 50 mM NaCl, 1% NP-40/Igepal CA-630, 2 mM MgCl2, 10% Glycerol, 5 mM beta-mercaptoethanol, cOmplete mini tablets EDTA free (Roche), PhosStop tablets (Roche)) for 10 mins. The equivalent of 20 μg of protein from the cleared cell lysate was incubated with a final conc of 2.5 μM HA-Ahx-Ahx-Ub-VME probe at room temperature. The reaction was stopped by addition of 5×SDS sample loading buffer and proteins separated by SDS PAGE and western blotting. USP30 was detected using an anti-USP30 Sheep S746D antibody (MRC PPU Reagents and Services) and a rabbit anti sheep secondary IgG (H+L) horseradish peroxidase conjugated (Thermo #31480) and visualised using ECL reagent (GE #RPN2109) on a GE LAS4000 imager. Target engagement was measured by quantitation of the bands corresponding to USP30 and USP30 bound to the Ub-VME probe and expression of this proportion compared to vehicle treated control.
Cell TE WB: USP30 endogenous cellular target engagement western blot (WB) assay. Assays the activity of compounds against USP30 in cells using an irreversible activity probe to monitor USP30 activity.

[2] = Reference Examples, read-out: USP30 IC50
[3] = USP30 biochemical IC50 assay, exemplary compounds, read-out: IC50

| SMILES | IC50 (Cathepsins B, K, L, S, V) [µM] | IC50 (Cathepsin V) [µM] | IC50 [1] [µM] | IC50 (Cathepsin B) [µM] | IC50 (Cathepsin S) [µM] | IC50 (Cathepsin K) [µM] | IC50 (USP30; [2]) [µM] | IC50 (Cathepsin L) [µM] | DUB selectivity preference for USP30 v UCHL1 (UCHL1) | IC50 (UCHL1) [µM] | EC50 (Endogenous USP30) [µM] | IC50 (USP30; [3]) [µM] | fold more potent against USP30 than UCHL1 (UCHL1) [fold] | IC50 (USP30; read-out: DUB IC50 (μM) USP30) [µM] | fold more potent against USP30 than against the cathepsins, minimum (Cathepsins B, K, L, S, V) [fold] | Selectivity preference for USP30 v cathepsins (Cathepsins B, K, L, S, V) | fold more potent against USP30 than against the nine DUBs, minimum [1] [fold] | DUB selectivity preference for USP30 v 9 DUBs [1] |
| --- | --- | --- | --- | --- | --- | --- | --- | --- | --- | --- | --- | --- | --- | --- | --- | --- | --- | --- |
| C[C@H]1CN(C#N)C[C@@H]1NC(=O)c1cnc(-c2ccccc2)s1 [C, reference compound] | 1.5 to 5.9 | 4 | 0.025 to 8.9 | 4.8 | 5.9 | 2.4 | 0.026 | 1.5 | – | – | – | – | – | – | 58 | 58-227 | 0.96 | 0.96-342 |
| COC[C@@H]1C[C@@H](NC(=O)c2nnc(-c3cccc(C#N)c3)o2)CN1C#N [Example 2, N-((3R,5S)-1-Cyano-5-(methoxymethyl)pyrrolidin-3-yl)-5-(3-cyanophenyl)-1,3,4-oxadiazole-2-carboxamide] | 32.8 to 300 | > 300 | ≥ 6.9 | > 300 | > 300 | 113 | – | 32.8 | 8100 | > 300 | 0.089 | 0.037 | – | – | – | 880-8100 | – | 186-8100 |
| CC1CC(C(=O)Nc2ncc(-c3ccccc3)s2)CN1C#N (stereo not shown) [G, reference compound] | – | – | – | – | – | – | 4.4 | – | – | 6.8 | – | – | 1.5 | 4.4 | – | – | – | – |
| COc1ccc(C#N)cc1-c1nnc(C(=O)N[C@@H]2C[C@@H](C)N(C#N)C2)o1 [Example 5, 5-(5-Cyano-2-methoxyphenyl)-N-((3R,5R)-1-cyano-5-methylpyrrolidin-3-yl)-1,3,4-oxadiazole-2-carboxamide] | 24.5 to 300 | 162 | ≥ 12.4 | > 300 | > 300 | 24.5 | – | > 300 | 8800 | > 300 | 0.072 | 0.034 | – | – | – | 720-8800 | – | 360-8800 |

Further lines, with some results ahead:

| IC50 (Cathepsins B, K, L, S, V) [µM] | IC50 (Cathepsin V) [µM] | IC50 [1] [µM] | IC50 (Cathepsin B) [µM] | IC50 (Cathepsin S) [µM] | IC50 (Cathepsin K) [µM] | IC50 (USP30; [2]) [µM] | IC50 (Cathepsin L) [µM] | DUB selectivity preference for USP30 v UCHL1 (UCHL1) | IC50 (UCHL1) [µM] | EC50 (Endogenous USP30) [µM] | IC50 (USP30; [3]) [µM] | fold more potent against USP30 than UCHL1 (UCHL1) [fold] | IC50 (USP30; read-out: DUB IC50 (μM) USP30) [µM] | SMILES | fold more potent against USP30 than against the cathepsins, minimum (Cathepsins B, K, L, S, V) [fold] | Selectivity preference for USP30 v cathepsins (Cathepsins B, K, L, S, V) | fold more potent against USP30 than against the nine DUBs, minimum [1] [fold] | DUB selectivity preference for USP30 v 9 DUBs [1] |
| --- | --- | --- | --- | --- | --- | --- | --- | --- | --- | --- | --- | --- | --- | --- | --- | --- | --- | --- |
| 1 to 5.3 | – | – | 5.3 | – | 2.7 | 0.31 | 1 | – | 0.25 | – | – | 0.8 | 0.31 | N#CN1CC[C@H](C(=O)Nc2ncc(-c3ccccc3)s2)C1 [E, reference compound] | 3.2 | 3.2-17 | – | – |
| 0.79 to 4.2 | 4.2 | 0.35 to 10.2 | 2.9 | 2.3 | 1.1 | 0.044 | 0.79 | – | – | – | – | – | – | N#CN1CCC(NC(=O)c2cc(-c3cccc(Cl)c3)no2)C1 (stereo not shown) [B, reference compound] | 18 | 18-95 | 8 | 8-232 |
| 0.79 to 8.8 | 5.8 | 0.19 to 9.9 | 4.5 | 8.8 | 0.79 | 0.07 | 2.8 | – | – | – | – | – | – | COc1cccc(-c2cc(C(=O)N[C@@H]3CCN(C#N)C3)on2)c1 [A, reference compound] | – | 11-126 | 2.7 | 2.7-141 |
| 2.3 to 6.9 | 3 | 0.19 to 5.1 | – | 6.9 | – | 0.041 | 2.3 | – | – | – | – | – | – | N#Cc1cccc(-c2ccn3c(C(=O)N[C@@H]4CCN(C#N)C4)cnc3c2)c1 [D] | 56 | 56-168 | 4.6 | 4.6-124 |
| 0.24 to 9.8 | 0.82 | – | 9.8 | 2.1 | 0.86 | 0.7 | 0.24 | 4.6 | 3.2 | – | – | 4.6 | – | N#CN1CCC(C(=O)Nc2nnc(-c3ccccc3)s2)C1 (stereo not shown) [F, reference compound] | 0.34 | 0.34-14 | – | – |
